The record followed here is US20230233569A1 (Revolution Medicines, Inc., priority 2020, published 2023).

Experiment [1] relates to AsPC-1 (K-Ras G12D). In words: CellTiter-Glo cell viability assay. It is filed as cell-based. To be noted: Homo sapiens, ASPC1, 120 h, read-out: AsPC-1 Cell Viability assay data IC50, K-Ras G12D, 5-day treatment. The procedure, abridged:
(§1)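 Cells already in plates received compound by direct dispensing. After incubation to day 5, plates sat at room temperature roughly 30 minutes, then ATP-based luminescence was measured and values derived from a four-parameter fit of DMSO-normalized data.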
(In general: In ATP-based viability assays light output follows the ATP content of the culture.)

The subject of a further experiment is NCI-H358 (K-Ras G12C). Put plainly: CellTiter-Glo cell viability assay. It is filed as cell-based. To be noted: Homo sapiens, NCI-H358, 120 h, read-out: H358 Cell Viability assay data IC50, K-Ras G12C, 5-day treatment. In short, it runs like this:
as §1

For another experiment, the target named is KRAS G12C (Homo sapiens, UniProt P01116+P62937, G12C). Put plainly: Ras-Raf disruption / FRET / MOA assay (BRAF RBD). It is filed as biochemical. To be noted: KRAS G12C FRET data IC50, Ras-Raf disruption, with Cyclophilin A. In short, it runs like this:
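TR-FRET read-out after 1.5 h with anti-His Eu-W1024 (10 nM) and anti-GST APC (50 nM), following 3 h at 25 °C of compound (top 30 μM, 3-fold, 10 points) with 25 μM Cyclophilin A, 12.5 nM GMPPNP-loaded K-Ras G12C and 50 nM BRAF RBD; IC50 reported.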

The next experiment has as its target NRAS G12C (Homo sapiens, UniProt P01111+P62937, G12C). Put plainly: Ras-Raf disruption / FRET / MOA assay (BRAF RBD). It is filed as biochemical. To be noted: NRAS G12C FRET data IC50, NRAS G12C. In short, it runs like this: (§2)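 Compound-induced Ras–Cyclophilin A ternary complex disrupting BRAF RBD binding, read as IC50 from reduced TR-FRET ratio relative to DMSO. Final: Ras-GMPPNP 12.5 nM, BRAF RBD 50 nM, Cyclophilin A 25 μM, top compound 30 μM (3-fold, 10 points); 3 h at 25 °C, then 1.5 h with detection antibodies.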

A further experiment has as its target KRAS G12V (Homo sapiens, UniProt P01116+P62937, G12V). In words: Ras-Raf disruption / FRET / MOA assay (BRAF RBD). It counts as biochemical. To be noted: KRAS G12V FRET data IC50, Ras-Raf disruption, with Cyclophilin A. In short, it runs like this:
as §2

For another experiment, the target named is KRAS Q61H (Homo sapiens, UniProt P01116+P62937, Q61H). In words: Ras-Raf disruption / FRET / MOA assay (BRAF RBD). It counts as biochemical. The procedure, abridged:
as §2

The target in another experiment is KRAS G13D (Homo sapiens, UniProt P01116+P62937, G13D). In words: Ras-Raf disruption / FRET / MOA assay (BRAF RBD). It counts as biochemical. To be noted: KRAS G13D FRET data IC50, Ras-Raf disruption, with Cyclophilin A. In short, it runs like this:
as §2

A further experiment has as its target KRAS G12S (Homo sapiens, UniProt P01116+P62937, G12S). In words: Ras-Raf disruption / FRET / MOA assay (BRAF RBD). It counts as biochemical. To be noted: KRAS G12S FRET data IC50, Ras-Raf disruption, with Cyclophilin A. In short, it runs like this:
as §2

For another experiment, the target named is KRAS G13C (Homo sapiens, UniProt P01116+P62937, G13C). Put plainly: Ras-Raf disruption / FRET / MOA assay (BRAF RBD). It is filed as biochemical. To be noted: KRAS G13C FRET data IC50, Ras-Raf disruption, with Cyclophilin A. The procedure, abridged:
as §2

In the next experiment the target is KRAS G12D (Homo sapiens, UniProt P01116+P62937, G12D). In words: Ras-Raf disruption / FRET / MOA assay (BRAF RBD). It counts as biochemical. To be noted: KRAS G12D FRET data IC50, Ras-Raf disruption, with Cyclophilin A. The procedure, abridged: as §2
The target of another experiment is NRAS WT (Homo sapiens, UniProt P01111+P62937). Put plainly: Ras-Raf disruption / FRET / MOA assay (BRAF RBD). It is filed as biochemical. The procedure, abridged: as §2
For a further experiment, the target named is KRAS WT (Homo sapiens, UniProt P01116+P62937). In words: Ras-Raf disruption / FRET / MOA assay (BRAF RBD). It is filed as biochemical. To be noted: KRAS WT FRET data IC50, Ras-Raf disruption, with Cyclophilin A. In short, it runs like this:
as §2

The target of a further experiment is NRAS Q61R (Homo sapiens, UniProt P01111+P62937, Q61R). In words: Ras-Raf disruption / FRET / MOA assay (BRAF RBD). It counts as biochemical. The procedure, abridged: as §2
The next experiment deals with NRAS Q61K (Homo sapiens, UniProt P01111+P62937, Q61K). Put plainly: Ras-Raf disruption / FRET / MOA assay (BRAF RBD). It is filed as biochemical. The procedure, abridged:
as §2

Experiment [2] relates to AsPC-1 (K-Ras G12D). In words: Potency assay: pERK. It is filed as cell-based. To be noted: Homo sapiens, ASPC1, read-out: pERK EC50.

Chain of KRAS Q61H (P01116 1-169 isoform P01116-2 Q61H limits assumed): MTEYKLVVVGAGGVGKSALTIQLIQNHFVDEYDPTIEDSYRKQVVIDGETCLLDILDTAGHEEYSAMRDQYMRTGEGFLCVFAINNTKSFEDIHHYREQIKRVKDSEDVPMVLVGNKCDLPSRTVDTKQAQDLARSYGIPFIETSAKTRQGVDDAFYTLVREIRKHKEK
Chain of KRAS Q61H (P62937 whole entry): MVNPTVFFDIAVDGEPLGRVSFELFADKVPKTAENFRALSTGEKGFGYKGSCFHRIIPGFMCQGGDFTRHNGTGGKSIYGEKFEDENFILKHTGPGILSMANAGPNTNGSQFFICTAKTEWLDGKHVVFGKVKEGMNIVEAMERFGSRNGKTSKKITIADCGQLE
Chain of NRAS WT (P01111 whole entry): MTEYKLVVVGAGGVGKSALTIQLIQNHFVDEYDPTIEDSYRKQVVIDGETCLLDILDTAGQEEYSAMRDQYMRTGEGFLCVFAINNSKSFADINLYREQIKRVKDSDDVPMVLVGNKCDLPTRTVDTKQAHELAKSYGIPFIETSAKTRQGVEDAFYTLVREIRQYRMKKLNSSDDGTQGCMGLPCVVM
Chain of NRAS WT (P62937 whole entry): as the sequence (P62937 whole entry) above
Chain of KRAS G13C (P01116 1-169 isoform P01116-2 G13C limits assumed): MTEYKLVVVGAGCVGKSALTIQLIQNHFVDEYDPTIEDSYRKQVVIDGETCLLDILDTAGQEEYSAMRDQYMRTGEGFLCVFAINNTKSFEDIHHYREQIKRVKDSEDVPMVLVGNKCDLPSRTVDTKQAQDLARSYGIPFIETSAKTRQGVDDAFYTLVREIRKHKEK
Chain of KRAS G13C (P62937 whole entry): as the sequence (P62937 whole entry) above
Chain of KRAS G12V (P01116 1-169 isoform P01116-2 G12V limits assumed): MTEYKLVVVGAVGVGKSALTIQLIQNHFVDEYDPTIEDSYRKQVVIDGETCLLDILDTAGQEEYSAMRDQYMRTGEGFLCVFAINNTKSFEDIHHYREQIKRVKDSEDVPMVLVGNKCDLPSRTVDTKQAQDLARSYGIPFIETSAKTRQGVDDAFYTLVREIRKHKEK
Chain of KRAS G12V (P62937 whole entry): as the sequence (P62937 whole entry) above
Chain of KRAS G12C (P01116 1-169 isoform P01116-2 G12C limits assumed): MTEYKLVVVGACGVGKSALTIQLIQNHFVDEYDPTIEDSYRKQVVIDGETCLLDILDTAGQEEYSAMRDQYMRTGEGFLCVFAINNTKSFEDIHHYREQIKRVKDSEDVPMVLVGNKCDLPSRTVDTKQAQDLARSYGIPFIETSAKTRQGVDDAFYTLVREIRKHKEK
Chain of KRAS G12C (P62937 whole entry): as the sequence (P62937 whole entry) above
Chain of NRAS Q61R (P01111 whole entry Q61R): as the sequence (P01111 whole entry) above, with Q61R counted along it
Chain of NRAS Q61R (P62937 whole entry): as the sequence (P62937 whole entry) above
Chain of KRAS G12S (P01116 1-169 isoform P01116-2 G12S limits assumed): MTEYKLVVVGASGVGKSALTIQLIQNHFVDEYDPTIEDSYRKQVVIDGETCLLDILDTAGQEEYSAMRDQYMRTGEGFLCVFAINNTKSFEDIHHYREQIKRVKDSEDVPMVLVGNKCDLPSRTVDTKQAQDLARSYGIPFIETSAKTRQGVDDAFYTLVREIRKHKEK
Chain of KRAS G12S (P62937 whole entry): as the sequence (P62937 whole entry) above
Chain of KRAS G12D (P01116 1-169 isoform P01116-2 G12D limits assumed): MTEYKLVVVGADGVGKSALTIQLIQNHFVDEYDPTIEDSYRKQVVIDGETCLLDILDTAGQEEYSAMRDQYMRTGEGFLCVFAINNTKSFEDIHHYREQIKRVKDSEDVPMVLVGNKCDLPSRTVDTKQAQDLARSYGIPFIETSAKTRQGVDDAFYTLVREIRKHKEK
Chain of KRAS G12D (P62937 whole entry): as the sequence (P62937 whole entry) above
Chain of NRAS Q61K (P01111 whole entry Q61K): as the sequence (P01111 whole entry) above, with Q61K counted along it
Chain of NRAS Q61K (P62937 whole entry): as the sequence (P62937 whole entry) above
Chain of KRAS G13D (P01116 1-169 isoform P01116-2 G13D limits assumed): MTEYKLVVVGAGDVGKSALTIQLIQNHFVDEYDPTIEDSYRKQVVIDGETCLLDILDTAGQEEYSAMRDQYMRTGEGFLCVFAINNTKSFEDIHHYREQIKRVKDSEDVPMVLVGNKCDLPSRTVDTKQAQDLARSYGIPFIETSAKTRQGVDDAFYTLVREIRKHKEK
Chain of KRAS G13D (P62937 whole entry): as the sequence (P62937 whole entry) above
Chain of NRAS G12C (P01111 whole entry G12C): as the sequence (P01111 whole entry) above, with G12C counted along it
Chain of NRAS G12C (P62937 whole entry): as the sequence (P62937 whole entry) above
Chain of KRAS WT (P01116 1-169 isoform P01116-2 limits assumed): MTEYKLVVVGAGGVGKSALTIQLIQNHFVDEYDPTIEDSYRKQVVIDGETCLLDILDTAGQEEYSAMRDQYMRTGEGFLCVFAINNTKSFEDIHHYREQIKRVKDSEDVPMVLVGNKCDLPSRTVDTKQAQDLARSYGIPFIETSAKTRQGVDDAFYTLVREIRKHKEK
Chain of KRAS WT (P62937 whole entry): as the sequence (P62937 whole entry) above

The term IC50 denotes the concentration needed to halve the response being measured. The term EC50 denotes the concentration giving half of the maximal effect. `CCn1c(-c2cccnc2[C@H](C)OC)c2c3cc(ccc31)-c1cc(O)cc(c1)C[C@H](NC(=O)[C@H](C(C)C)N(C)C(=O)CN(C)C(=O)[C@H]1CN1CC1(C)COC1)C(=O)N1CCC[C@H](N1)C(=O)OCC(C)(C)C2` (stereo partly drawn) [Example 279]: the IC50 with AsPC-1 (K-Ras G12D) [1] is 100 to 1000 nM; with NCI-H358 (K-Ras G12C), under 10 nM; against KRAS G12C, 10 to 100 nM; at NRAS G12C it was 10 to 100 nM; on KRAS G12V, 10 to 100 nM; against KRAS Q61H, 10 to 100 nM. Moreover, the 50% inhibitory concentration (IC50) at KRAS G13D lay in the range of 100 to 1000 nM; against KRAS G12S it was 10 to 100 nM; at KRAS G13C, 10 to 100 nM; against KRAS G12D, 100 to 1000 nM; against NRAS WT it was 10 to 100 nM; against KRAS WT, 10 to 100 nM. Besides, the concentration for half-maximal inhibition (IC50) at NRAS Q61R and on NRAS Q61K was 100 to 1000 nM each time. Also, in the experiment on AsPC-1 (K-Ras G12D) [2], the concentration for a half-maximal effect (EC50) is under 5000 nM.
Turning to `CCn1c(-c2cccnc2[C@H](C)OC)c2c3cc(ccc31)-c1cc(O)cc(c1)C[C@H](NC(=O)[C@H](C(C)C)N(C)C(=O)CN(C)C(=O)[C@H]1CN1CCCC#N)C(=O)N1CCC[C@H](N1)C(=O)OCC(C)(C)C2` (stereo partly drawn) [Example 273], the IC50 is 100 to 1000 nM with AsPC-1 (K-Ras G12D) [1]; under 10 nM with NCI-H358 (K-Ras G12C); under 10 nM at KRAS G12C; under 10 nM on NRAS G12C; 10 to 100 nM at KRAS G12V; 10 to 100 nM on KRAS Q61H. The 50% inhibitory concentration (IC50) was in the range of 100 to 1000 nM on KRAS G13D; 10 to 100 nM against KRAS G12S; 10 to 100 nM at KRAS G13C; 100 to 1000 nM against KRAS G12D; 10 to 100 nM at NRAS WT; 10 to 100 nM against KRAS WT. The IC50 on NRAS Q61R and against NRAS Q61K was 100 to 1000 nM in each case. Also, the concentration giving a half-maximal response (EC50) with AsPC-1 (K-Ras G12D) [2] was under 5000 nM.
Regarding `CCn1c(-c2cccnc2[C@H](C)OC)c2c3cc(ccc31)-c1cc(O)cc(c1)C[C@H](NC(=O)[C@H](C(C)C)N(C)C(=O)CN(C)C(=O)[C@@H]1CN1CC1(C)COC1)C(=O)N1CCC[C@H](N1)C(=O)OCC(C)(C)C2` (stereo partly drawn) [Example 280], the IC50 in the experiment with AsPC-1 (K-Ras G12D) [1] was 1000 to 10000 nM; in the experiment on NCI-H358 (K-Ras G12C), under 10 nM; against KRAS G12C, under 10 nM; against NRAS G12C it was under 10 nM; against KRAS G12V, 10 to 100 nM; against KRAS Q61H it was 10 to 100 nM. For the same compound, the half-inhibitory concentration (IC50) against KRAS G13D lay within 100 to 1000 nM; on KRAS G12S, 10 to 100 nM; against KRAS G13C it was 10 to 100 nM; at KRAS G12D, 10 to 100 nM; on NRAS WT, 10 to 100 nM; against KRAS WT, 10 to 100 nM. Also, the half-maximal inhibitory concentration (IC50) against NRAS Q61R and against NRAS Q61K was 100 to 1000 nM in each case. The EC50 in the experiment with AsPC-1 (K-Ras G12D) [2] was under 5000 nM.
As for `CCn1c(-c2cccnc2[C@H](C)OC)c2c3cc(ccc31)-c1cc(O)cc(c1)C[C@H](NC(=O)[C@H](C(C)C)N(C)C(=O)CN(C)C(=O)[C@H]1CN1CC1COC1)C(=O)N1CCC[C@H](N1)C(=O)OCC(C)(C)C2` (stereo partly drawn) [Example 277], the half-inhibitory concentration (IC50) in the experiment on AsPC-1 (K-Ras G12D) [1] was in the range of 100 to 1000 nM; with NCI-H358 (K-Ras G12C), 10 to 100 nM; on KRAS G12C, 10 to 100 nM; against NRAS G12C it was 10 to 100 nM; on KRAS G12V it was 100 to 1000 nM; at KRAS Q61H, 10 to 100 nM. In addition, the IC50 on KRAS G13D is 100 to 1000 nM; at KRAS G12S, 10 to 100 nM; against KRAS G13C, 10 to 100 nM; against KRAS G12D, 100 to 1000 nM; on NRAS WT, 100 to 1000 nM; on KRAS WT, 100 to 1000 nM. Also, the IC50 at NRAS Q61R lay in the range of 1000 to 10000 nM; against NRAS Q61K it was 100 to 1000 nM. Further, the half-maximal effective concentration (EC50) in the experiment with AsPC-1 (K-Ras G12D) [2] was under 5000 nM.
